# Measurements: ChEMBL document CHEMBL3137667, “[Drug-induced liver injury; fourteenth updated edition of the bibliographic database of liver injuries and related drugs]” (Gastroenterol Clin Biol, 2004)
# What was measured:
# [1] = human, serum
# [2] = human
# [3] = human; remark: listed apart in the source
# [4] = human, serum; remark: listed apart in the source
# [5] = human; remark: listed apart in the source
# [6] = Comments (NB not yet translated). [column 'COMMENTAIRES' in source]; settings: human
# [7] = human; remark: listed apart in the source
# [8] = human; remark: listed apart in the source
# [9] = Proposed mechanism(s) of liver damage. [column 'MEC' in source]; settings: human
# [10] = human, serum, 4383 h
# [11] = Highest frequency of moderate liver toxicity observed during clinical trials, expressed as a percentage. [column '% BIOL' in source]; settings: human
# [12] = human; remark: listed apart in the source
# [13] = human; remark: listed apart in the source
# [14] = human; remark: listed apart in the source
# [15] = Highest frequency of acute liver toxicity observed during clinical trials, expressed as a percentage. [column '% AIGUE' in source]; settings: human
# [16] = human; remark: listed apart in the source
# [17] = Times to onset, minimal and maximal, observed in the indexed observations. [column 'DELAI' in source]; settings: human
# 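Throughout, for Hepatotoxicity (association with vascular disease): count of indexed literature references reporting vascular liver injury in humans, e.g. peliosis hepatitis, hepatic veno-occlusive disease or Budd-Chiari syndrome.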
# 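Throughout, for Hepatotoxicity (benign tumour): value is a count of indexed literature references citing a benign tumour confirmed by histopathology.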
# 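Throughout, for Hepatotoxicity (choleostasis): human cholestatic liver injury, shown by histopathology or by peak ALT or AST elevation over alkaline phosphatase ratio below 2, value counts indexed literature reports.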
# 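Throughout, for Hepatotoxicity (chronic liver disease): chronic liver injury confirmed by histopathology or persistently raised serum aminotransferase activity beyond 6 months, value given as the count of indexed literature references.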
# 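Throughout, for Hepatotoxicity (cirrhosis): value is a count of indexed literature references reporting cirrhosis confirmed by histopathology.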
# 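Throughout, for Hepatotoxicity (cytolytic): human cytolytic liver injury, shown by histopathology or by a ratio above 5 of peak ALT or AST elevation to alkaline phosphatase elevation, value counts indexed references.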
# 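Throughout, for Hepatotoxicity (granulomatous hepatitis): value is a count of indexed literature references reporting granulomatous liver disease confirmed by histopathology.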
# 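Throughout, for Hepatotoxicity (malignant tumour): malignant tumour confirmed by histopathology, value gives the count of indexed literature references reporting it.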
# 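Throughout, for Hepatotoxicity (severe hepatitis): human clinical data: severe hepatitis, meaning potentially life-threatening liver failure or clinically observed cases, the value counts how many indexed literature references report it.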
# 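Throughout, for Hepatotoxicity (steatosis): steatosis confirmed by histopathology, value is the count of indexed references.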
SMILES,Hepatotoxicity (acute) [1],Hepatotoxicity (cirrhosis) [2],Hepatotoxicity (granulomatous hepatitis) [3],Hepatotoxicity (moderate) [4],Hepatotoxicity (choleostasis) [5],Hepatotoxicity (comment) [6],Hepatotoxicity (steatosis) [7],Hepatotoxicity (association with vascular disease) [8],Hepatotoxicity (mechanism) [9],Hepatotoxicity (chronic liver disease) [10],Hepatotoxicity (moderate) [11],Hepatotoxicity (severe hepatitis) [12],Hepatotoxicity (cytolytic) [13],Hepatotoxicity (benign tumour) [14],Hepatotoxicity (acute) [15],Hepatotoxicity (malignant tumour) [16],Hepatotoxicity (time to onset) [17],other results
CCc1cc2c(s1)N(C)C(=O)CN=C2c1ccccc1Cl [CLOTIAZEPAM],2,0,0,0,0,AC_ANTI-N,0,0,Allergic,0,0%,0,2,0,0%,0,7 months,–
CN1CCC(=C2c3ccccc3C=Cc3ccccc32)CC1 [CYPROHEPTADINE],5,0,0,0,3,CHOLESTASE_PROLONGEE CHOLANGITE,0,0,Allergic,0,0%,0,3,0,0%,0,1 week - 1 month,–
CC(=O)Oc1cccc2c1C(=O)c1c(OC(C)=O)cc(C(=O)O)cc1C2=O [DIACEREIN],2,0,0,0,1,AC_ANTI-N,0,0,Allergic,0,0%,1,1,0,0%,0,10 days,–
Cc1onc(-c2c(Cl)cccc2Cl)c1C(=O)N[C@@H]1C(=O)N2[C@@H]1SC(C)(C)[C@@H]2C(=O)O [DICLOXACILLIN],4,0,1,2,3,CHOLESTASE_PROLONGEE,0,0,Allergic,1,0%,0,0,0,0%,0,5 days - 2 months,–
O=C(O)c1cc(-c2ccc(F)cc2F)ccc1O [DIFLUNISAL],5,0,–,2,–,AC_ANTI-ML,0,0,–,0,–,–,–,0,–,0,1 week - 1 month,Hepatotoxicity (granulomatous hepatitis) ([3]; Liver): 1; Hepatotoxicity (choleostasis) ([5]; Liver): 4; Hepatotoxicity (mechanism) ([9]; Liver): Allergic; Hepatotoxicity (moderate) ([11]; Liver): 5%; Hepatotoxicity (severe hepatitis) ([12]; Liver): 0; Hepatotoxicity (cytolytic) ([13]; Liver): 2; Hepatotoxicity (acute) ([15]; Liver): 0%
C[C@H]1c2cccc(O)c2C(=O)C2=C(O)[C@]3(O)C(=O)C(C(N)=O)=C(O)[C@@H](N(C)C)[C@@H]3[C@@H](O)[C@@H]21.O [DOXYCYCLINE],5,0,0,8,3,CHOLESTASE_PROLONGEE DUCTOPENIE,2,0,Allergic,1,10%,1,1,0,0%,0,1 day - 12 years,–
COc1cc([C@@H]2c3cc4c(cc3[C@@H](O[C@@H]3O[C@@H]5CO[C@@H](C)O[C@H]5[C@H](O)[C@H]3O)[C@H]3COC(=O)[C@H]23)OCO4)cc(OC)c1O [ETOPOSIDE],4,0,–,24,–,MVO,0,10,–,0,–,–,–,0,–,0,1 week - 5 weeks,Hepatotoxicity (granulomatous hepatitis) ([3]; Liver): 0; Hepatotoxicity (choleostasis) ([5]; Liver): 2; Hepatotoxicity (mechanism) ([9]; Liver): Dose-dependant; Hepatotoxicity (moderate) ([11]; Liver): 50%; Hepatotoxicity (severe hepatitis) ([12]; Liver): 5; Hepatotoxicity (cytolytic) ([13]; Liver): 2; Hepatotoxicity (acute) ([15]; Liver): 1%
O=C(c1cc(O)c(O)c(O)c1)c1ccc(O)c(O)c1O [EXIFONE],9,0,0,0,0,AC_ANTI-ML/-N,0,0,"Allergic, Toxic",0,0%,4,9,0,0%,0,3 weeks - 8 months,–
COCCCC/C(=N\OCCN)c1ccc(C(F)(F)F)cc1 [FLUVOXAMINE],3,0,0,5,2,SURDOSAGE,0,0,Dose-dependant,0,0%,0,1,0,0%,0,4 days - 4 months,–
CC(=O)O[C@H]1C[C@@]2(C)[C@@H](C[C@@H](O)[C@H]3[C@@]4(C)CC[C@@H](O)[C@@H](C)[C@@H]4CC[C@@]32C)/C1=C(\CCC=C(C)C)C(=O)O [FUSIDIC ACID],19,0,0,12,2,HYPERBILIRUBINEMIE,0,0,Dose-dependant,0,50%,0,0,0,34%,0,2 days - 2 months,–
COc1c(N2CCNC(C)C2)c(F)cc2c(=O)c(C(=O)O)cn(C3CC3)c12 (centres undefined) [GATIFLOXACIN],3,0,0,18,2,CHOLESTASE_PROLONGEE DUCTOPENIE,2,0,Allergic,1,6.5%,1,2,0,0%,0,2 days - 8 days,–
Cc1ccc(C)c(OCCCC(C)(C)C(=O)O)c1 [GEMFIBROZIL],1,0,0,24,0,I/LOVASTATINE,1,0,Dose-dependant,0,–,–,1,0,–,0,9 days - 12 days,Hepatotoxicity (moderate) ([11]; Liver): 10%; Hepatotoxicity (severe hepatitis) ([12]; Liver): 0; Hepatotoxicity (acute) ([15]; Liver): 0%
